Reference: patent US20230085307A1, “PYRIDAZINONE COMPOUND AND HERBICIDE” (NISSAN CHEMICAL CORPORATION, priority 2019, published 2023)

Legend:
Type in all cases: in vivo
[1] = system: rapeseed; assay: Test Example 5: effect on crop by foliage application, plastic box (Table 20, symbol g); conditions: three weeks after application
In short: (§1)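 Plants sown in sterilized diluvial soil and grown 14 days in a greenhouse at 25° C to 30° C, then sprayed on the foliage with the compound's emulsion diluted in water to a predetermined herbicide amount. Injury to weeds and crops scored three weeks after application on a visual rating scale.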

[2] = system: soybean; assay: Test Example 5: effect on crop by foliage application, plastic box (Table 20, symbol d); conditions: three weeks after application
In short: as §1

[3] = system: directly sowed rice; assay: Test Example 3: effect on crop by foliage application, Wagner pot (Table 18, symbol b)
In short: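 Plants were sown in alluvial soil held under 0.1–0.5 cm standing water and grown 14 days in a greenhouse at 25–30 °C. An emulsifiable formulation, water-diluted to the set dose, was then sprayed onto the foliage, and effects were scored three weeks later using previously defined criteria.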

[4] = system: rapeseed; assay: Test Example 4: effect on crop by soil treatment (Table 19, symbol g)
In short: (§2)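 Three weeks of greenhouse growth at 25° C. to 30° C. followed a uniform surface spray of water-diluted emulsion at a predetermined herbicide amount. Seeds had been sown beforehand under about 1.5 cm of sterilized diluvial soil. Grading followed criteria set out in an earlier test.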

[5] = system: corn; assay: Test Example 4: effect on crop by soil treatment (Table 19, symbol c)
In short: as §2

[6] = system: transplanted rice; assay: Test Example 1: effect on crop, application before weed generation under submerged conditions (Table 16, symbol a)
Source text: [Test Example 1] Herbicidal Activity Test by Application before Weed Generation under Submerged Conditions After alluvial soil was placed into 1/10000 are of Wagner pot, water was poured and mixed to form a submerged condition having a water depth of 4 cm. Seeds of late watergrass, Japanese bulrush, and oval-leafed pondweed were sowed in a mixed manner in the aforementioned pot, and then 2.5 leaf stage rice plant seedlings were transplanted thereto. On the day of sowing seeds, the emulsion agent of the compound of the present invention prepared according to Formulation Example 2 was diluted with water so as to achieve a predetermined herbicide amount, and the diluted emulsion agent was applied to the surface of the water. The pot was placed in a greenhouse at 25° C. to 30° C. for growth of the plants. Three weeks after the herbicide application, the effect of the herbicide on each plant was evaluated according to the following criteria. Evaluation Criteria 5: Herbicidal rate of 90% or more (almost completely withered) 4: Herbicidal rate of 70% or more and less than 90% 3: Herbicidal rate of 40% or more and less than 70% 2: Herbicidal rate of 20% or more and less than 40% 1: Herbicidal rate of 5% or more and less than 20% 0: Herbicidal rate of 5% or less (almost no effect)

[7] = system: beet; assay: Test Example 5: effect on crop by foliage application, plastic box (Table 20, symbol f); conditions: three weeks after application
In short: as §1

[8] = system: soybean; assay: Test Example 4: effect on crop by soil treatment (Table 19, symbol d)
In short: as §2

[9] = amount of applied herbicide 214 g/ha
[10] = amount of applied herbicide 320 g/ha

| Structure (SMILES) | g: rapeseed, effect on crop grade ([1]; 214 g/ha) | d: soybean, effect on crop grade ([2]; 214 g/ha) | effect on directly sowed rice (b) ([3]; 214 g/ha) | g: rapeseed, effect on crop grade [4, 9] | c: corn, effect on crop grade [5, 9] | Effect on crop, a: transplanted rice [6, 9] | f: beet, effect on crop grade ([7]; 214 g/ha) | d: soybean, effect on crop grade [8, 9] | g: rapeseed, effect on crop grade ([1]; 320 g/ha) | d: soybean, effect on crop grade ([2]; 320 g/ha) | effect on directly sowed rice (b) ([3]; 320 g/ha) | g: rapeseed, effect on crop grade [4, 10] | c: corn, effect on crop grade [5, 10] | Effect on crop, a: transplanted rice [6, 10] | f: beet, effect on crop grade ([7]; 320 g/ha) | d: soybean, effect on crop grade [8, 10] |
| --- | --- | --- | --- | --- | --- | --- | --- | --- | --- | --- | --- | --- | --- | --- | --- | --- |
| COc1ccc2c(-c3c(O)c(C)nn(C)c3=O)c(-c3ccccc3OC)sc2c1 [Compound No. 3-065, 5-hydroxy-4-(6-methoxy-2-(2-methoxyphenyl)benzo[b]thiophen-3-yl)-2,6-dimethylpyridazin-3(2H)-one] | 5 (Herbicidal rate of 90% or more (almost completely withered)) | 5 (Herbicidal rate of 90% or more (almost completely withered)) | 1 (Herbicidal rate of 5% or more and less than 20%) | 5 (Herbicidal rate of 90% or more (almost completely withered)) | 0 (Herbicidal rate of 5% or less (almost no effect)) | 0 (Herbicidal rate of 5% or less (almost no effect)) | 5 (Herbicidal rate of 90% or more (almost completely withered)) | 0 (Herbicidal rate of 5% or less (almost no effect)) |  |  |  |  |  |  |  |  |
| COc1ccc2c(-c3c(O)c(Cl)nn(C)c3=O)c(-c3ccccc3OC)sc2c1 [Compound No. 3-088, 6-chloro-5-hydroxy-4-(6-methoxy-2-(2-methoxyphenyl)benzo[b]thiophen-3-yl)-2-methylpyridazin-3(2H)-one] |  |  |  |  |  |  |  |  | 5 (Herbicidal rate of 90% or more (almost completely withered)) | 3 (Herbicidal rate of 40% or more and less than 70%) | 0 (Herbicidal rate of 5% or less (almost no effect)) | 5 (Herbicidal rate of 90% or more (almost completely withered)) | 0 (Herbicidal rate of 5% or less (almost no effect)) | 0 (Herbicidal rate of 5% or less (almost no effect)) | 5 (Herbicidal rate of 90% or more (almost completely withered)) | 1 (Herbicidal rate of 5% or more and less than 20%) |
| COc1ccccc1-c1sc2cc(OCC(F)(F)F)ccc2c1-c1c(O)c(C)nn(C)c1=O [Compound No. 3-116, 5-hydroxy-4-(2-(2-methoxyphenyl)-6-(2,2,2-trifluoroethoxy)benzo[b]thiophen-3-yl)-2,6-di methylpyridazin-3 (2H)-one] |  |  |  |  |  |  |  |  | 5 (Herbicidal rate of 90% or more (almost completely withered)) | 5 (Herbicidal rate of 90% or more (almost completely withered)) | 5 (Herbicidal rate of 90% or more (almost completely withered)) | 5 (Herbicidal rate of 90% or more (almost completely withered)) | 0 (Herbicidal rate of 5% or less (almost no effect)) | 4 (Herbicidal rate of 70% or more and less than 90%) | 5 (Herbicidal rate of 90% or more (almost completely withered)) | 1 (Herbicidal rate of 5% or more and less than 20%) |
